Results as given in publication PMC4428838, “Optimization of Invasion-Specific Effects of Betulin Derivatives on Prostate Cancer Cells through Lead Development” (PLoS ONE, 2015).

Assays:
Format in all cases: cell-based
PC-3 cells = experiment: Primary 3D screen in Matrigel ECM, morphometric image analysis (AMIDA) of invasion, growth and cell death; conditions: PC-3 in 3D Matrigel; for anti-invasive effects in 3D culture (in words): 0.03-1 μM
Protocol: Three standard of care compounds widely used against PrCa were added as controls; namely, the androgen receptor antagonist enzalutamide (MDV3100), the C17α-hydroxylase/C17,20-lyase inhibitor abiraterone (Zytiga), and the classic mitotic inhibitor paclitaxel. Treatments started at day 4, when well-differentiated round acini were established.
The live 3D cell cultures were then stained with reactive dyes Calcein AM to detect living, and ethidium homodimer to detect dead cells. Images (Fig 4A) were acquired with confocal microscope and image data were analyzed with the AMIDA software. The principles of morphometric image analysis are briefly outlined in S2 Fig.
Fig 4 Primary 3D screen. PC-3 cells were cultured in 3D Matrigel ECM for 4 days and treated for 6 days with 25 betulin derivatives (from 2D high throughput screens), DMSO/vehicle control, and three reference compounds. A) Representative maximum intensity projections of confocal microscope stack images for selected compound treatments at 300 nM concentration (5× objective, scale 100 μm). B) Three graphs showing the relative impact on three morphometric parameters for 7 betulin derivatives, DMSO control, and one control compound (paclitaxel). […] C) Hierarchical clustering was done using three morphological parameters derived from PC3 organoids: spheroid size (area), complexity and the number of dead cells. D) Wound healing curves of the two betulin derivatives 4 and 20, highlighting the 50% cut-off level (orange dashed line).
Next, statistical analyses were performed to interpret the complex image data (Fig 4B and 4C). For simplicity, we focused on only three, basic morphologic parameters from the multiparametric AMIDA readout (Fig 4B): 1) Area (indicating growth of organoids), 2) structural Complexity (as a measure of the intensity of invasion), and 3) Relative Area of dead cells within organoids (red signal as a measure of cytoxicity or apoptosis). Area (Size of organoids; Fig 4B, upper panel) was measured as the number of pixels within a segmented structure. […] Shape Complexity (Fig 4B, middle panel) was obtained using the structure size (area) and perimeter (number of border pixels). The more regular the shape of an organoid, the closer it is to a perfect circle, thus minimizing the perimeter relative to object size. […] Deviations from this average (residuals) were interpreted as a measure for the shape complexity of organoids. As a logical lower limit for this measure (represented by a perfect circle), we adjusted the intercept (height level) of the regression line to render all returned residuals as positive numbers.
All 3D cultures were done in growth factor-free Matrigel Basement-membrane Matrix (Corning Inc., New York, NY, USA) using 96-well Angiogenesis μ-plates (ibidi GmbH, Munich, Germany) as described before.[38] “Sandwich” assays in short: bottom wells of cooled Angiogenesis plates were filled with 10 μL 4 mg/mL Matrigel, centrifuged for 20 min 200 g and incubated at 37°C temperature for approximately 30–60 min or until the ECM had polymerized. 1,000–1,500 cells were mixed in 2 mg/mL ECM-medium, and 20 μL of cell suspension was added in each well. The plates were centrifuged for 10 min at 100 g, or until the cells had settled on top of the lower ECM. Finally, the outer wells and side reservoirs were filled with water for humidification, and the culture plates placed into the incubator for 3–4 h or overnight. The following day, 60 μL of cell culture medium were added; refreshed every third day by carefully aspirating the medium.

LAPC-4 = experiment: Secondary 3D screen (spheroid size, complexity, cell death); conditions: yellow and red clusters
Description: (§1) Next, the 25 selected betulin derivatives depicted in Figs 1–3 including control compounds were again thoroughly tested across the same panel of prostate-derived cell lines already used in the preliminary, 2D high-throughput screen. The resulting dendrograms were either generated separately for each cell line (S4 Fig), combined into a single dendrogram (Fig 5A), or shown as reduced organoid sizes (area; Fig 5B).
(§2) Fig 5 Secondary 3D screens. Experimental betulin derivatives and control compounds were tested across a panel of prostate cancer lines (LNCaP, LAPC-4) and non-transformed, prostate epithelial cells (EP156T) in 3D culture. A) The dendrogram is based on three main morphological parameters and combines all data from primary and secondary 3D screens. […] B) Boxplots showing the impact of selected compounds on spheroid size (Area). Data scaling: as described in Fig 4 C) Effects of all betulin derivatives and control compounds on cell death (number of dead cells).
(§3) All 3D cultures were done in growth factor-free Matrigel Basement-membrane Matrix (Corning Inc., New York, NY, USA) using 96-well Angiogenesis μ-plates (ibidi GmbH, Munich, Germany) as described before.[38] “Sandwich” assays in short: bottom wells of cooled Angiogenesis plates were filled with 10 μL 4 mg/mL Matrigel, centrifuged for 20 min 200 g and incubated at 37°C temperature for approximately 30–60 min or until the ECM had polymerized. 1,000–1,500 cells were mixed in 2 mg/mL ECM-medium, and 20 μL of cell suspension was added in each well. The plates were centrifuged for 10 min at 100 g, or until the cells had settled on top of the lower ECM. Finally, the outer wells and side reservoirs were filled with water for humidification, and the culture plates placed into the incubator for 3–4 h or overnight. The following day, 60 μL of cell culture medium were added; refreshed every third day by carefully aspirating the medium. This “sandwich” setting allows almost unifocal alignment of cells and 3D structures in a single optical plane, thus reducing the time required for confocal stack imaging.
(§4) All control compounds were purchased from Selleck (Munich, Germany), except for staurosporine (Sigma-Aldrich, St. Louis, MO, USA) and Y-27632 (Tocris, Bristol, UK) and dissolved in dimethyl sulfoxide (DMSO) as a vehicle at 10 mM. In the primary and secondary 3D screens, experimental and control compound exposures were performed in triplicates. Four concentrations for each compound were applied (0.03, 0.1, 0.3 and 1 μM). Compound treatments were initiated four days after cell embedding, and continued for six days after which spheroids were stained and imaged.
(§5) Supplementary file pone.0126111.s004.eps: S4 Fig Secondary screens. Dendrograms for A) LNCaP, B) LAPC-4, and C) Ep156T betulin screens in 3D culture have been constructed using three main read-outs: spheroid size, spheroid complexity, and cell death. […] (EPS) Click here for additional data file.

LNCaP organoids = experiment: as above; conditions: dendrogram clusters
Description: as §1, §2, §3, §4, §5

Ep156T cell line = experiment: as above; conditions: at the highest concentration
Description: as §1, §2, §3, §4, §5

[1] = system: PC-3, LNCaP, LAPC-4, Ep156T; experiment: Primary and secondary 3D screens combined across the cell line panel; conditions: cell lines other than PC-3, 3D, 300 nM or lower (except compound 15)
Protocol: Fig 5 Secondary 3D screens. Experimental betulin derivatives and control compounds were tested across a panel of prostate cancer lines (LNCaP, LAPC-4) and non-transformed, prostate epithelial cells (EP156T) in 3D culture. A) The dendrogram is based on three main morphological parameters and combines all data from primary and secondary 3D screens. Effective compound treatments are indicated in red and yellow, yellow being the most invasion-specific. B) Boxplots showing the impact of selected compounds on spheroid size (Area). Data scaling: as described in Fig 4 C) Effects of all betulin derivatives and control compounds on cell death (number of dead cells).
In order to assist functional categorization of our betulin derivatives, we combined all data into a single dendrogram, shown in Fig 5A. In addition, multiparametric representation of all experimental data as a single heatmap is highly informative (S5 Fig) and a potent way to illustrate the effects of compounds on growth, structural complexity and cell death across multiple cell lines. […] However, at lower concentrations, these compounds may act as potent and specific inhibitors of cell invasion and motility.
Supplementary file pone.0126111.s005.eps: S5 Fig Primary and secondary screens. […] The main read-outs (Area = Size, Complexity = Invasiveness, Red = Cell death) are shown in their own columns. Data scaling: DMSO control has been given a value 0 whereas paclitaxel control is valued -100 or 100 depending on the read-out. Color key is located in the upper right corner. (EPS) Click here for additional data file.
Supplementary file pone.0126111.s006.tif: S6 Fig Confocal images from primary and secondary betulin screens. Viable cells have been stained with calcein AM (green) and dead cells with ethidium homodimer-2 (red) (5× objective, maximum intensity projections, scale bar = 100 μm). (TIF) Click here for additional data file.

[2] = system: actin cytoskeleton of PC-3, LNCaP and Ep156T spheroids; experiment: F-actin cytoskeleton (phalloidin staining) in 3D spheroids; conditions: after 48 hours of exposure; seen in Ep156T acini and PC-3 spheroids, not LNCaP
Description: […] […] For phenotypic comparisons, we tested a panel of reference compounds targeting Akt, Rac, ROCK, Src, and other pathways, broadly linked to the actin cytoskeleton.
Fig 8 3D morphologies of prostate spheroids, exposed to selected betulin derivatives and captured with a confocal microscope. Actin cytoskeleton (filamentous or F-actin) is stained green (phalloidin), nuclei with a red dye (confocal microscope images, 40× objective, scale bar shown for each panel on the right lower corner).

SMILES | efficacy in 3D LAPC-4 culture (dendrogram clusters) (LAPC-4) | anti-invasive effects in 3D culture (in words) (PC-3 cells; 6 days treatment) | effects on the other cell lines at anti-invasive concentrations [1] | organization of actin cytoskeleton in 3D spheroids [2] | also measured
CNC(=O)c1ccc(N2C(=S)N(c3ccc(C#N)c(C(F)(F)F)c3)C(=O)C2(C)C)cc1F [enzalutamide, reference compound] | efficacy of all positive controls |  |  |  | effect on morphometric measures (area, complexity, dead cells) (PC-3 cells; paclitaxel at 30 and 100 nM): no noticeable effect; among the effective treatments in 3D LNCaP organoids (LNCaP organoids): among the effective treatments
C=C(C)[C@@H]1CC[C@]2(C(=O)O)CC[C@]3(C)C(CCC4[C@@]5(C)CCC(=O)C(C)(C)C5CC[C@]43C)C12 (stereo partly drawn) [Compound 2, betulonic acid] |  | did not show significant anti-invasive effects |  |  | response of Ep156T in 3D culture (Ep156T cell line): responded to betulonic acid
C=C(C)[C@@H]1CC[C@]2(C(=O)O)CC[C@]3(C)C(CCC4[C@@]5(C)Cc6nccnc6C(C)(C)C5CC[C@]43C)C12 (stereo partly drawn) [Compound 15] |  | most potent anti-invasive effects | no noticeable effects on the other cell lines | effectively disrupted the organization of actin cytoskeleton | concentration with strong anti-invasive effects in 3D (PC-3 cells; 6 days treatment): 1.0 µM; growth inhibition in 3D (PC-3 cells; at 1.0 μM): without any growth inhibition
CN[C@@H]1C[C@H]2O[C@@](C)([C@@H]1OC)n1c3ccccc3c3c4c(c5c6ccccc6n2c5c31)C(=O)NC4 [staurosporine, reference compound] |  |  |  | affected the cytoskeleton in a comparable fashion | 
CC(C)[C@@H]1CC[C@]2(C(=O)O)CC[C@]3(C)C(CCC4[C@@]5(C)CCC(=O)C(C)(C)C5CC[C@]43C)C12 (stereo partly drawn) [Compound 3] | most active | one of the most potent anti-invasive, growth inhibitory agents | no noticeable effects on the other cell lines |  | concentration at which anti-invasive effects are seen in 3D (PC-3 cells; 6 days treatment): ≤ 300 nM
